Reference: publication PMC8588536, “Iridal-Type Triterpenoids Displaying Human Neutrophil Elastase Inhibition and Anti-Inflammatory Effects from Belamcanda chinensis” (Molecules, 2021)

Tests used:
[1] = biological target: T1, Human neutrophil elastase (HNE, EC 3.4.21.37) (Homo sapiens, UniProt P08246); assay: Human neutrophil elastase inhibition, spectrophotometric, MeOSuc-AAPV-pNA substrate; assay type: biochemical
T1 construct: purchased Sigma-Aldrich
T1 sequence (P08246 30-267): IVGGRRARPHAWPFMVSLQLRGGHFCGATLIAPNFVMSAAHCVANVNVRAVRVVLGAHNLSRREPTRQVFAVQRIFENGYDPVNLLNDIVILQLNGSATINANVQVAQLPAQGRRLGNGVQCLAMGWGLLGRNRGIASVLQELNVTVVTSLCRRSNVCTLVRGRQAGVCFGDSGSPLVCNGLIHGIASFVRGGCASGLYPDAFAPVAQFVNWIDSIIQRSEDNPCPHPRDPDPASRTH
Description: Human neutrophil elastase (EC 3. 4. 21. 37) (Sigma-Aldrich, St. Louis, MO, USA) activity was measured in accordance with the previous description with subtle modification, by observing the formation of p-nitroaniline after the hydrolysis of N-methoxysuccinyl-Ala-Ala-Pro-Val-p-nitro anilide at 405 nm. The inhibitors were dissolved in dimethyl sulfoxide (DMSO) and diluted to a few concentrations. In brief, in a 96-well plate, 10 µL of inhibitor solution and 40 µL of 1.5 mM of MeOSuc-AAPV-pNA were added as a substrate in the 0.02 mM Tris-HCl buffer solutions (pH 8.0). Then, 20 µL of human neutrophil elastase (0.2 unit/mL) was added to the mixture. The test mixtures were incubated and mixed for 15 min at room temperature and then screened at 405 nm for 30 min every 30 s.
Activity (%) = 100 [1/(1 + ([I]/IC50))].(1)
The modalities of HNE inhibition were estimated in experiments using particular concentrations of the substrates and inhibitors, respectively. The Michaelis–Menten constant (Km) and maximal velocity (Vmax) were investigated by a Lineweaver–Burk plot. The KI, dissociation constants for inhibitor binding to the free enzyme were calculated using a Dixon plot. Equations (2)–(4) are representatives for deriving the aforementioned parameters. (2) 1/V=Km/Vmax(1+[I]/Ki)×1/S+1/Vmax (3) Slop=Km/KiVmax[I]+Km/Vmax (4) Intercept=1/KiVmax[I]+1/Vmax.

[2] = biological target: T2, Human neutrophil elastase (HNE) (Homo sapiens, UniProt P08246); assay: Fluorescence quenching binding affinity to HNE; conditions: inhibitor 7.8–31.2 µM
T2 construct: purchased Sigma-Aldrich
T2 sequence (P08246 30-267): T1 sequence (P08246 30-267)
Description: To measure fluorescence from the HNE enzyme, 10 μL of 0.01 unit/mL enzyme solution with 180 μL of Tris-HCl buffer (0.02 mM) was accurately added into the 96-well black immunoplates. Then, 10 μL of incremental concentrations (7.8–31.2 μΜ) of inhibitors were added into each well. All fluorescence spectra were measured from 280 to 400 nm with emission slits regulated to 2.0 nm, and the excitation wavelength was 260 nm. The Stern–Volmer quenching constant (KSV) was calculated using Equation (5). All experiments were conducted in triplicate, and the mean values were calculated. (5) […]=1+KSV[Q], where F0 and F are the fluorescence intensities in the absence and presence of quencher (Q). KSV is the Stern–Volmer quenching constant [LM^−1]. For static quenching, the correlation between the fluorescence intensity and the concentration of quencher for the series of reactions can be estimated by Equation (6). (6) log[(F0−F)/F]=logKA+nlog[Q]f.
F0 and F are the fluorescence intensities in the absence and presence of inhibitor; KA is the binding constant; n is the number of binding sites of the enzyme; Qf is the concentration of inhibitor.

[3] = test system: NF-κB p65 in LPS-stimulated RAW264.7 cells; assay: NF-κB nuclear translocation, immunocytochemistry; assay type: cell-based, mouse; conditions: pre-treatment 2 h prior to LPS 1 µg/mL for 16 h
Description: RAW264.7 cells cultured on round cover slips coated with poly-L-lysine were treated with triterpenoids (1 or 3 µg/mL) 2 h prior to LPS treatment, followed by LPS (1 µg/mL) for 16 h. The cells were washed with 1 x phosphate buffered saline (PBS) and fixed with 4% paraformaldehyde for 30 min. After washing the fixed cells with PBS, the cells were permeabilized with a blocking buffer (1% normal goat serum and 0.2% Triton X-100 in PBS) for 30 min at room temperature, and were incubated with an anti-NF-κB p65 antibody (1:200 dilution, Cell Signaling Technology, Danvers, MA, USA) at 4 °C overnight. After three washes in PBS, the cells were incubated in the dark for 1 h with the mixture of FITC-conjugated anti-rabbit IgG fluorescent secondary antibody diluted at 1:500 in PBS. Finally, the cells were stained with 2 µg/mL Hoechst for nuclei staining. The cells were washed with PBS, wet-mounted on glass slides, and observed using a confocal laser-scanning microscope (Olympus, Tokyo, Japan). The negative control (NC) was analyzed by omitting the primary antibody.

Row | Structure (SMILES) | Ki ([1]; Dixon plots, read-out: Ki (inhibition constant)) [µM] | Type of Inhibition ([1]; Lineweaver-Burk and Dixon plots, reversibility from activity vs enzyme concentration plots) | fold better HNE inhibition than monocyclic compounds (1 and 2) ([1]; compared with compounds 1 and 2) | IC50 ([1]; concentration that caused 50% enzyme activity loss, three sets of experiments) [µM] | n (number of binding sites of the enzyme) [2] | Kd ([2]; read-out: KA (association constant of the complex of enzyme and quencher) (converted)) [µM] | KSV (Stern-Volmer quenching constant) ([2]; λEx 260 nm, λEm 280–400 nm) [L/mol] | NF-κB translocation to the nucleus (immunocytochemical staining) [3]
1 | COC1OC(C=C(C)C=CC=C(C)CCC=C(C)C)CC12C(CCCO)C(=C(C)C=O)CCC2(C)O (centres unmarked) [Compound 3, iridobelamal B] | 6.2 | noncompetitive inhibitor | 2–3 fold | 6.8 ± 0.3 | 0.9727 | 13.5 | 67640 | 
2 | CC(C)(C)c1ccc(S(=O)(=O)/C=C/C#N)cc1 [Bay 11-7085, reference compound] |  |  |  |  |  |  |  | suppressed
